Measured values: patent publication US11267800B2, “Cyclohexyl acid triazole azines as LPA antagonists” (BRISTOL-MYERS SQUIBB COMPANY, priority 2017, dated 2022)

Biological target: T1, human LPA1 (Homo sapiens, UniProt Q92633)
T1 construct: expressed in transfected cells; host or cells: Chinese hamster ovary (CHO) cells
Test: LPA1 functional antagonist assay (calcium flux)
Assay type: cell-based
Conditions: CHO cells overexpressing human LPA1; inhibition of calcium flux induced by 10 nM LPA; read-out: hLPA1 IC50
Summary of the method: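 IC50 values come from 4-parameter logistic fits and mark 50% block of the calcium flux evoked by 10 nM LPA. Human LPA1-overexpressing CHO cells were calcium-dye loaded at 37 °C, then given test compound (0.08 nM–5 μM, 0.5% DMSO, HEPES-buffered HBSS with 0.1% fatty-acid-free BSA) for 20 min at room temperature before agonist.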

T1 sequence (Q92633 whole entry): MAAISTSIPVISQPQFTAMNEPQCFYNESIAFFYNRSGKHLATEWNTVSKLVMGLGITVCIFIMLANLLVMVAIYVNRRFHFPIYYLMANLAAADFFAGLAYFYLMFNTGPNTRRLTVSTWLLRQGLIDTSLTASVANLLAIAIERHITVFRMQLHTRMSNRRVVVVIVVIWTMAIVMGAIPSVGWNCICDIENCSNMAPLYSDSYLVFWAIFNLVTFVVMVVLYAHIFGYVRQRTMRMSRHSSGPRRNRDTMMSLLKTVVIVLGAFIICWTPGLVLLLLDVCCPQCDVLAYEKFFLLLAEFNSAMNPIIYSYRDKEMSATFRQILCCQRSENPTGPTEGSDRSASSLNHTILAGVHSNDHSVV

IC50 [nM] | Compound
5.3 | CCOc1ccnc(OCc2c(-c3ccc(O[C@H]4CCC[C@H](C(=O)O)C4)c(C)n3)nnn2C)c1 [Example 270]
16 | CCOc1ccnc(N(C)Cc2c(-c3ccc(O[C@H]4CCC[C@H](C(=O)O)C4)c(C)n3)nnn2C)n1 [Example 271]
163 | CCOc1cc(NCc2c(-c3ccc(O[C@H]4CCC[C@H](C(=O)O)C4)c(C)n3)nnn2C)ncn1 [Example 272]
13 | CCOc1cc(OCc2c(-c3ccc(O[C@H]4CCC[C@H](C(=O)O)C4)c(C)n3)nnn2C)ncn1 [Example 273]
26 | Cc1nc(-c2nnn(C)c2COc2cc(OC3CC3)ncn2)ccc1O[C@H]1CCC[C@H](C(=O)O)C1 [Example 274]
15 | Cc1nc(-c2nnn(C)c2COc2cc(C3CC3)ncn2)ccc1O[C@H]1CCC[C@H](C(=O)O)C1 [Example 275]
8.7 | Cc1nc(-c2nnn(C)c2COc2cc(OC3CC3)ccn2)ccc1O[C@H]1CCC[C@H](C(=O)O)C1 [Example 276]
24 | Cc1nc(-c2nnn(C)c2COc2cc(C(C)C)ncn2)ccc1O[C@H]1CCC[C@H](C(=O)O)C1 [Example 277]
140 | COc1cc(OCc2c(-c3ccc(O[C@H]4CCC[C@H](C(=O)O)C4)c(C)n3)nnn2C)nc(OC)n1 [Example 279]
15.3 | CCc1ccnc(OCc2c(-c3ccc(O[C@H]4CCC[C@H](C(=O)O)C4)c(C)n3)nnn2C)c1 [Example 280]
365 | COc1ccnc(OCc2c(-c3ccc(O[C@H]4CCC[C@H](C(=O)O)C4)c(C)n3)nnn2C)c1 [Example 281]
37 | Cc1nc(-c2nnn(C)c2COc2ccnc(C3CC3)n2)ccc1O[C@H]1CCC[C@H](C(=O)O)C1 [Example 282]
8.8 | Cc1nc(-c2nnn(C)c2COc2cc(C3CC3)ccn2)ccc1O[C@H]1CCC[C@H](C(=O)O)C1 [Example 283]
147 | CCOc1cnnc(OCc2c(-c3ccc(O[C@H]4CCC[C@H](C(=O)O)C4)c(C)n3)nnn2C)c1 [Example 284]
61 | COCCCOc1cc(OCc2c(-c3ccc(O[C@H]4CCC[C@H](C(=O)O)C4)c(C)n3)nnn2C)ncn1 [Example 285]
135 | Cc1nc(-c2nnn(C)c2COc2cc(C(C)(C)C)ncn2)ccc1O[C@H]1CCC[C@H](C(=O)O)C1 [Example 286]
41 | Cc1nc(-c2nnn(C)c2COc2ccnc(C(C)C)n2)ccc1O[C@H]1CCC[C@H](C(=O)O)C1 [Example 287]
308 | Cc1nc(-c2nnn(C)c2COc2cc(C(F)(F)F)cc(C#N)n2)ccc1O[C@H]1CCC[C@H](C(=O)O)C1 [Example 288]
30 | Cc1nc(-c2nnn(C)c2COc2cc(OC(C)C)ncn2)ccc1O[C@H]1CCC[C@H](C(=O)O)C1 [Example 290]
3280 | COc1ncnc(OCc2c(-c3ccc(O[C@H]4CCC[C@H](C(=O)O)C4)c(C)n3)nnn2C)c1C [Example 291]
390 | Cc1nc(-c2nnn(C)c2COc2ncnc(OC3CC3)c2C)ccc1O[C@H]1CCC[C@H](C(=O)O)C1 [Example 292]
78 | CCc1ncnc(OCc2c(-c3ccc(O[C@H]4CCC[C@H](C(=O)O)C4)c(C)n3)nnn2C)c1C [Example 293]
85 | CCCc1cc(OCc2c(-c3ccc(O[C@H]4CCC[C@H](C(=O)O)C4)c(C)n3)nnn2C)ncn1 [Example 294]
21 | Cc1nc(-c2nnn(C)c2COc2cc(C(F)(F)F)ncn2)ccc1O[C@H]1CCC[C@H](C(=O)O)C1 [Example 295]
16 | Cc1nc(-c2nnn(C)c2COc2cc(C(F)F)ncn2)ccc1O[C@H]1CCC[C@H](C(=O)O)C1 [Example 296]
16 | [2H]C([2H])([2H])Oc1cc(OCc2c(-c3ccc(O[C@H]4CCC[C@H](C(=O)O)C4)c(C)n3)nnn2C)ncn1 [Example 297]

IC50 [nM] | Compound
121 | Cc1nc(-c2nnn(C)c2COc2cc(N3CCCC3)ncn2)ccc1O[C@H]1CCC[C@H](C(=O)O)C1 [Example 298]
67 | COCc1cc(OCc2c(-c3ccc(O[C@H]4CCC[C@H](C(=O)O)C4)c(C)n3)nnn2C)ncn1 [Example 299]
31 | CCc1cncc(OCc2c(-c3ccc(O[C@H]4CCC[C@H](C(=O)O)C4)c(C)n3)nnn2C)n1 [Example 300]
7.9 | CCc1ccnc(OCc2c(-c3ccc(O[C@H]4CCC[C@H](C(=O)O)C4)c(C)n3)nnn2C)n1 [Example 301]
7.5 | Cc1nc(-c2nnn(C)c2COc2nccc(C3CC3)n2)ccc1O[C@H]1CCC[C@H](C(=O)O)C1 [Example 302]
64 | Cc1nc(-c2nnn(C)c2COc2cc(NC3CC3)ncn2)ccc1O[C@H]1CCC[C@H](C(=O)O)C1 [Example 303]
66 | Cc1nc(-c2nnn(C)c2COc2cc(Cl)ncn2)ccc1O[C@H]1CCC[C@H](C(=O)O)C1 [Example 304]
11 | Cc1nc(-c2nnn(C)c2COc2nccc(C(F)(F)F)n2)ccc1O[C@H]1CCC[C@H](C(=O)O)C1 [Example 305]
36 | CCc1nccc(OCc2c(-c3ccc(O[C@H]4CCC[C@H](C(=O)O)C4)c(C)n3)nnn2C)n1 [Example 306]
2990 | COc1cncc(OCc2c(-c3ccc(O[C@H]4CCC[C@H](C(=O)O)C4)c(C)n3)nnn2C)n1 [Example 307]
60 | Cc1nc(-c2nnn(C)c2COc2ccnc(C(F)F)c2)ccc1O[C@H]1CCC[C@H](C(=O)O)C1 [Example 308]
3240 | COc1cncc(OCc2c(-c3ccc(O[C@H]4CCC[C@H](C(=O)O)C4)c(C)n3)nnn2C)c1 [Example 309]
17 | Cc1nc(-c2nnn(C)c2COc2nccc(C(F)F)n2)ccc1O[C@H]1CCC[C@H](C(=O)O)C1 [Example 310]
44 | CCc1ncnc(OCc2c(-c3ccc(O[C@H]4CCC[C@H](C(=O)O)C4)c(C)n3)nnn2C)n1 [Example 311]
139 | Cc1nc(-c2nnn(C)c2CNc2cc(C(F)(F)F)ncn2)ccc1O[C@H]1CCC[C@H](C(=O)O)C1 [Example 312]
41 | Cc1nc(-c2nnn(C)c2COc2cc(-c3ccc(F)cc3)ncn2)ccc1O[C@H]1CCC[C@H](C(=O)O)C1 [Example 313]
416 | Cc1nc(-c2nnn(C)c2COc2cc(-n3cnnc3C)ncn2)ccc1O[C@H]1CCC[C@H](C(=O)O)C1 [Example 314]
22 | Cc1nc(-c2nnn(C)c2COc2cc(C(F)F)ccn2)ccc1O[C@H]1CCC[C@H](C(=O)O)C1 [Example 315]
263 | Cc1nc(-c2nnn(C)c2COc2nccc(-c3cnccn3)n2)ccc1O[C@H]1CCC[C@H](C(=O)O)C1 [Example 316]
72 | Cc1nc(-c2nnn(C)c2COc2nccc(-c3ccccn3)n2)ccc1O[C@H]1CCC[C@H](C(=O)O)C1 [Example 317]
159 | CCc1cc(NCc2c(-c3ccc(O[C@H]4CCC[C@H](C(=O)O)C4)c(C)n3)nnn2C)ncn1 [Example 318]
57 | Cc1nc(-c2nnn(C)c2CNc2nccc(COC(C)C)n2)ccc1O[C@H]1CCC[C@H](C(=O)O)C1 [Example 319]
90 | Cc1nc(-c2nnn(C)c2COc2nccc(COC(C)C)n2)ccc1O[C@H]1CCC[C@H](C(=O)O)C1 [Example 320]
37 | Cc1nc(-c2nnn(C)c2COc2nccc(COC3CC3)n2)ccc1O[C@H]1CCC[C@H](C(=O)O)C1 [Example 321]
44 | Cc1nc(-c2nnn(C)c2CNc2nccc(COC3CC3)n2)ccc1O[C@H]1CCC[C@H](C(=O)O)C1 [Example 322]
